Data reported in patent US7608716B2, “Pyrazolonaphthyridine derivative” (Aska Pharmaceutical Co., Ltd., priority 2002, dated 2009).

Question: With `COc1ccc(OC)c(Cc2n[nH]c3c2c(=O)n(-c2ccccc2)c2ncccc32)c1` (hydrate or solvate) [Example No. 27, 3-(2,5-dimethoxybenzyl)-5-phenyl-1H-pyrazolo[4,3-c][1,8]naphthyridin-4 (5H)-one] as the molecule, how does the melting point read?
Answer: Its melting point is 248 to 250 °C.

Question: With `O=c1c2c(Cc3ccccc3[N+](=O)[O-])n[nH]c2c2cccnc2n1-c1ccccc1` (hydrate or solvate) [Example No. 26, 3-(2-nitrobenzyl)-5-phenyl-1H-pyrazolo[4,3-c][1,8]naphthyridin-4 (5H)-one] as the molecule, how does the melting point read?
Answer: Its melting point is 318 to 320 °C (dec.).

Question: With `CS(=O)(=O)Nc1ccc(CCc2n[nH]c3c2c(=O)n(-c2ccccc2)c2ncccc32)cc1` [Example 48, 3-[2-(4-methanesulfonylaminophenyl)ethyl]-5-phenyl-1H-pyrazolo[4,3-c][1,8]naphthyridin-4 (5H)-one] as the molecule, how does the melting point read?
Answer: Its melting point is 284 to 285 °C.

Question: Which melting point does the source give for `O=c1c2c(Cc3ccccc3O)n[nH]c2c2cccnc2n1-c1ccccc1` [Example 42, 3-(2-hydroxybenzyl)-5-phenyl-1H-pyrazolo[4,3-c][1,8]-naphthyridin-4 (5H)-one] here?
Answer: Its melting point is 278 to 280 °C.

Question: Which melting point does the source give for `O=c1c2c(Cc3cccc([N+](=O)[O-])c3)n[nH]c2c2cccnc2n1-c1ccccc1` (hydrate or solvate) [Example 25, 3-(3-nitrobenzyl)-5-phenyl-1H-pyrazolo[4,3-c][1,8]naphthyridin-4 (5H)-one] here?
Answer: The melting point was over 320 °C.

Question: Which melting point does the source give for `O=c1c2c(CCc3cccnc3)n[nH]c2c2cccnc2n1-c1ccccc1` [Example 3, 5-phenyl-3-[2-(pyridin-3-yl)ethyl]-1H-pyrazolo[4,3-c][1,8]-naphthyridin-4 (5H)-one] here?
Answer: Its melting point is 322 °C (dec.).

Question: Which melting point does the source give for `O=C(O)c1ccccc1CCc1n[nH]c2c1c(=O)n(-c1ccccc1)c1ncccc21` (hydrate or solvate) [Example 37, 3-[2-(2-carboxyphenyl)ethyl]-5-phenyl-1H-pyrazolo[4,3-c][1,8]naphthyridin-4 (5H)-one] here?
Answer: The melting point was 302 to 308 °C.

Question: With `COc1cccc(Cc2n[nH]c3c2c(=O)n(-c2ccccc2)c2ncccc32)c1` (hydrate or solvate) [Example 20, 3-(3-methoxybenzyl)-5-phenyl-1H-pyrazolo[4,3-c][1,8]naphthyridin-4 (5H)-one] as the molecule, how does the melting point read?
Answer: The melting point was 234 to 236 °C.

Question: For `CCOC(=O)Cc1ccc(Cc2n[nH]c3c2c(=O)n(-c2ccccc2)c2ncccc32)cc1` (hydrate or solvate) [Example No. 32, 3-(4-ethoxycarbonylmethylbenzyl)-5-phenyl-1H-pyrazolo[4,3-c][1,8]naphthyridin-4 (5H)-one], which melting point is on record?
Answer: Its melting point is 263 to 264 °C.

Question: For `O=c1c2c(Cc3cccnc3)n[nH]c2c2cccnc2n1-c1ccccc1` [Example 4, 5-phenyl-3-(pyridin-3-yl)methyl-1H-pyrazolo[4,3-c][1,8]-naphthyridin-4 (5H)-one], which melting point is on record?
Answer: The melting point was 306 °C (dec.).

Question: For `COc1ccc(Cc2n[nH]c3c2c(=O)n(-c2ccccc2)c2ncccc32)cc1` (hydrate or solvate) [Example No. 21, 3-(4-methoxybenzyl)-5-phenyl-1H-pyrazolo[4,3-c][1,8]naphthyridin-4 (5H)-one], which melting point is on record?
Answer: The melting point was 300 to 302 °C.

Question: Which melting point does the source give for `Nc1ccc(CCc2n[nH]c3c2c(=O)n(-c2ccccc2)c2ncccc32)cc1` (hydrate or solvate) [Example No. 13, 3-[2-(4-aminophenyl)ethyl]-5-phenyl-1H-pyrazolo[4,3-c][1,8]naphthyridin-4 (5H)-one] here?
Answer: The melting point was over 310 °C.

Question: With `COc1cc(Cc2n[nH]c3c2c(=O)n(-c2ccccc2)c2ncccc32)cc(OC)c1` (hydrate or solvate) [Example 29, 3-(3,5-dimethoxybenzyl)-5-phenyl-1H-pyrazolo[4,3-c][1,8]naphthyridin-4 (5H)-one] as the molecule, how does the melting point read?
Answer: Its melting point is 258 to 259 °C.

Question: With `COc1ccc(Cc2n[nH]c3c2c(=O)n(-c2ccccc2)c2ncccc32)c(OC)c1` (hydrate or solvate) [Example No. 30, 3-(2,4-dimethoxybenzyl)-5-phenyl-1H-pyrazolo[4,3-c][1,8]naphthyridin-4 (5H)-one] as the molecule, how does the melting point read?
Answer: The melting point was 266 to 267 °C.

Question: For `CS(=O)(=O)Nc1ccc(Cc2n[nH]c3c2c(=O)n(-c2ccccc2)c2ncccc32)cc1` [Example 49, 3-(4-methanesulfonylaminobenzyl)-5-phenyl-1H-pyrazolo[4,3-c][1,8]naphthyridin-4 (5H)-one], which melting point is on record?
Answer: The melting point was 306 to 307 °C.

Question: Which melting point does the source give for `N#Cc1cccc(CCc2n[nH]c3c2c(=O)n(-c2ccccc2)c2ncccc32)c1` (hydrate or solvate) [Example 18, 3-[2-(3-cyanophenyl)ethyl]-5-phenyl-1H-pyrazolo[4,3-c][1,8]naphthyridin-4 (5H)-one] here?
Answer: Its melting point is 219.5 to 224.5 °C.

Question: For `O=c1c2c(CCc3cccc([N+](=O)[O-])c3)n[nH]c2c2cccnc2n1-c1ccccc1` (hydrate or solvate) [Example 15, 3-[2-(3-nitrophenyl)ethyl]-5-phenyl-1H-pyrazolo[4,3-c][1,8]naphthyridin-4 (5H)-one], which melting point is on record?
Answer: Its melting point is 245 to 247 °C.

Question: With `COc1ccc(Cc2n[nH]c3c2c(=O)n(-c2ccccc2)c2ncccc32)cc1OC` (hydrate or solvate) [Example 28, 3-(3,4-dimethoxybenzyl)-5-phenyl-1H-pyrazolo[4,3-c][1,8]naphthyridin-4 (5H)-one] as the molecule, how does the melting point read?
Answer: Its melting point is 230 to 232 °C.

Question: For `N#Cc1ccccc1CCc1n[nH]c2c1c(=O)n(-c1ccccc1)c1ncccc21` (hydrate or solvate) [Example 17, 3-[2-(2-cyanophenyl)ethyl]-5-phenyl-1H-pyrazolo[4,3-c][1,8]naphthyridin-4 (5H)-one], which melting point is on record?
Answer: Its melting point is 315.5 to 316.5 °C.

Question: For `O=C(O)c1cccc(CCc2n[nH]c3c2c(=O)n(-c2ccccc2)c2ncccc32)c1` [Example 38, 3-[2-(3-carboxyphenyl)ethyl]-5-phenyl-1H-pyrazolo[4,3-c][1,8]naphthyridin-4 (5H)-one], which melting point is on record?
Answer: Its melting point is 159 to 161 °C.

Question: For `COc1ccccc1Cc1n[nH]c2c1c(=O)n(-c1ccccc1)c1ncccc21` (hydrate or solvate) [Example No. 22, 3-(2-methoxybenzyl)-5-phenyl-1H-pyrazolo[4,3-c][1,8]naphthyridin-4 (5H)-one], which melting point is on record?
Answer: The melting point was 276 to 277 °C.

Question: With `O=c1c2c(Cc3cccs3)n[nH]c2c2cccnc2n1-c1ccccc1` (hydrate or solvate) [Example No. 23, 3-(2-thienylmethyl)-5-phenyl-1H-pyrazolo[4,3-c][1,8]naphthyridin-4 (5H)-one] as the molecule, how does the melting point read?
Answer: The melting point was 282 to 284 °C.

Question: With `N#Cc1ccc(Cc2n[nH]c3c2c(=O)n(-c2ccccc2)c2ncccc32)cc1` (hydrate or solvate) [Example 31, 3-(4-cyanobenzyl)-5-phenyl-1H-pyrazolo[4,3-c][1,8]naphthyridin-4 (5H)-one] as the molecule, how does the melting point read?
Answer: Its melting point is 316 to 318 °C (dec.).

Question: Which melting point does the source give for `O=c1c2c(CCc3ccncc3)n[nH]c2c2cccnc2n1-c1ccccc1` [Example 1, 5-phenyl-3-[2-(pyridin-4-yl)ethyl]-1H-pyrazolo[4,3-c][1,8]-naphthyridin-4 (5H)-one] here?
Answer: Its melting point is 267 to 269 °C.

Question: With `O=C(O)c1ccc(CCc2n[nH]c3c2c(=O)n(-c2ccccc2)c2ncccc32)cc1` (hydrate or solvate) [Example No. 14, 3-[2-(4-carboxyphenyl)ethyl]-5-phenyl-1H-pyrazolo[4,3-c][1,8]naphthyridin-4 (5H)-one] as the molecule, how does the melting point read?
Answer: The melting point was 318 to 320 °C.
